According to BindingDB's records for doi:10.1016/j.bmcl.2010.10.094 (Universit&#224, 2010):
pKi: −log10 of the molar value.

What follows are molecules tested against carbonic anhydrase XII (human) (assay: Inhibition of human recombinant CA12 catalytic domain by stopped-flow CO2 hydration method).

Going from `CCCOc1cc2oc(=O)ccc2cc1C(C)=O` [6-acetyl-7-propoxy-2H-chromen-2-one] to `CCCOc1ccc2ccc(=O)oc2c1C(C)=O` [8-acetyl-7-propoxy-2H-chromen-2-one], the pKi rises from under 4.00 to 9.01. The second binds more tightly here.

Going from `CCOc1ccc2ccc(=O)oc2c1C(=O)CC` [7-ethoxy-8-propionyl-2H-chromen-2-one] to `CCOc1ccc2ccc(=O)oc2c1C(C)=O` [8-acetyl-7-ethoxy-2H-chromen-2-one], the pKi rises from 7.48 to 9.00 (1.52 log units). The second binds more tightly here.

`CC(=O)c1c(OCCC23CC4CC(CC(C4)C2)C3)ccc2ccc(=O)oc12` [8-Acetyl-7-(2-adamantan-1-yl-ethoxy)-chromen-2-one] and `CC(=O)c1c(OCc2ccccc2)ccc2ccc(=O)oc12` [8-acetyl-7-(benzyloxy)-2H-chromen-2-one] are within 0.2 log units of each other in pKi: 7.50 for the first, 7.65 for the second.
